Measured values taken from patent publication US20200405697A1, “Antitumor Agent” (Taiho Pharmaceutical Co., Ltd, priority 2017, published 2020).

The compounds below were run against T1, human RNR (histidine tagged human M1 and human M2 proteins) (Homo sapiens, UniProt P23921) (assay: Human RNR inhibition effect (dCDP formation from CDP)). Conditions: 10 μM CDP, 37° C. for 30 minutes, read-out: RNR inhibitory activity IC50.
T1 construct: made in house; host or cells: Escherichia coli
T1 sequence (P23921 1-792): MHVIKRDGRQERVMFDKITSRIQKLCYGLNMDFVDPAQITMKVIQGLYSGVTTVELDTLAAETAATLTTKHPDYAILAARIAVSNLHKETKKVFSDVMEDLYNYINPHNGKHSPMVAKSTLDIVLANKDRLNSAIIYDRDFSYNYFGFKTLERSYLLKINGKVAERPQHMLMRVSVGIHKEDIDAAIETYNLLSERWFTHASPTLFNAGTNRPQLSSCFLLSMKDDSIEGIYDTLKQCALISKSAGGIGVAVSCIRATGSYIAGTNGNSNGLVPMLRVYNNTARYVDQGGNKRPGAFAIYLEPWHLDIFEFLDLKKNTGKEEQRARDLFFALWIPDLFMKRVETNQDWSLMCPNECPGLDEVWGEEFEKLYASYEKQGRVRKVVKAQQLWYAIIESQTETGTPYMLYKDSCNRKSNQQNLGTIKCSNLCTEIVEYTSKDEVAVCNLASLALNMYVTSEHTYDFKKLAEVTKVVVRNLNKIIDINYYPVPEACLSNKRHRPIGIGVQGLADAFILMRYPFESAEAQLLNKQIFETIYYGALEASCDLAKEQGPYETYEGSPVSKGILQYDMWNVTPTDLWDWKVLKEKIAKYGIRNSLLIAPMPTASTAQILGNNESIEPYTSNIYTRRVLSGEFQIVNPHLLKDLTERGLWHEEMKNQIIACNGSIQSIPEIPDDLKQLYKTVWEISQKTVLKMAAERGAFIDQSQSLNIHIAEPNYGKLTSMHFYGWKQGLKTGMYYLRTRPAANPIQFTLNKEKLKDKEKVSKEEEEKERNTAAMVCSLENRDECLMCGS
Assay type: biochemical
Outline: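 His-tagged human M1 (isoform 1) and N-terminal 59-aa-truncated M2 (isoform 2), E. coli-expressed, Ni-purified, preincubated 20 min with compound (1% DMSO). Reaction with 10 μM CDP, 2 mM ATP, 0.24 mM NADPH, 6 mM DTT, 4 mM Mg acetate, 100 mM KCl, 50 mM HEPES pH 7.2, 30 min at 37° C. dCDP formed quantified by reverse-phase HPLC after heat stop.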

Compound | IC50
COc1cc(Cl)ccc1S(=O)(=O)N[C@H](c1n[nH]c(=O)o1)[C@H](C)c1c(F)ccc(-c2ccc(N3CCOCC3)nc2)c1C [Example 315, 4-chloro-N-((1S,2R)-2-(6-fluoro-2-methyl-3-(6-morpholinopyridin-3-yl)phenyl)-1-(5-oxo-4,5-dihydro-1,3,4-oxadiazol-2-yl)propyl)-2-methoxybenzenesulfonamide] | 190 nM
COc1ncc(-c2ccc(F)c([C@@H](C)[C@H](NS(=O)(=O)c3ccc(Cl)cc3OC)c3n[nH]c(=O)o3)c2C)cn1 [Example 319, 4-chloro-N-((1S,2R)-2-(6-fluoro-3-(2-methoxypyrimidin-5-yl)-2-methylphenyl)-1-(5-oxo-4,5-dihydro-1,3,4-oxadiazol-2-yl)propyl)-2-methoxybenzenesulfonamide] | 280 nM
COc1cc(Cl)ccc1S(=O)(=O)N[C@H](c1n[nH]c(=O)o1)[C@H](C)c1c(F)ccc(-c2ccc(N3CCCCC3)nc2)c1C [Example 320, 4-chloro-N-((1S,2R)-2-(6-fluoro-2-methyl-3-(6-(piperidin-1-yl)pyridin-3-yl)phenyl)-1-(5-oxo-4,5-dihydro-1,3,4-oxadiazol-2-yl)propyl)-2-methoxybenzenesulfonamide] | 600 nM
COc1cc(Cl)ccc1S(=O)(=O)N[C@H](c1n[nH]c(=O)o1)[C@H](C)c1c(F)ccc(-c2cnc3c(c2)OCCN3C)c1C [Example 322, 4-chloro-N-((1S,2R)-2-(6-fluoro-2-methyl-3-(4-methyl-3,4-dihydro-2H-pyrido[3,2-b][1,4]oxazine-7-yl)phenyl)-1-(5-oxo-4,5-dihydro-1,3,4-oxadiazol-2-yl)propyl)-2-methoxybenzenesulfonamide] | 220 nM
COc1cc(Cl)ccc1S(=O)(=O)N[C@H](c1n[nH]c(=O)o1)[C@H](C)c1c(F)ccc(-c2cncc(C(=O)N3CCOCC3)c2)c1C [Example 323, 4-chloro-N-((1S,2R)-2-(6-fluoro-2-methyl-3-(5-(morpholine-4-carbonyl)pyridin-3-yl)phenyl)-1-(5-oxo-4,5-dihydro-1,3,4-oxadiazol-2-yl)propyl)-2-methoxybenzenesulfonamide] | 420 nM
Cc1c(-c2cnn(C)c2)ccc(F)c1[C@@H](C)[C@H](NS(=O)(=O)c1ccc(Cl)cc1C(N)=O)c1n[nH]c(=O)o1 [Example 324, 5-chloro-2-(N-((1S,2R)-2-(6-fluoro-2-methyl-3-(1-methyl-1H-pyrazol-4-yl)phenyl)-1-(5-oxo-4,5-dihydro-1,3,4-oxadiazol-2-yl)propyl)sulfamoyl)benzamide] | 170 nM
Cc1c(Br)ccc(F)c1[C@@H](C)[C@H](NS(=O)(=O)c1ccc(Cl)c2c1OCCC2(C)N)c1n[nH]c(=O)o1 (stereo partly drawn) [Example 329, 4-amino-N-((1S,2R)-2-(3-bromo-6-fluoro-2-methylphenyl)-1-(5-oxo-4,5-dihydro-1,3,4-oxadiazol-2-yl)propyl)-5-chloro-4-methyl-chroman-8-sulfonamide] | 60 nM
COC(=O)c1c(Cl)ccc(S(=O)(=O)N[C@H](c2n[nH]c(=S)o2)[C@H](C)c2cccc3c2CCC3)c1Cl [Example 333, methyl 2,6-dichloro-3-(N-((1S,2R)-2-(2,3-dihydro-1H-inden-4-yl)-1-(5-thioxo-4,5-dihydro-1,3,4-oxadiazol-2-yl)propyl)sulfamoyl)benzoate] | 310 nM
COC(=O)c1cc(S(=O)(=O)N[C@H](c2n[nH]c(=S)o2)[C@H](C)c2cccc3c2CCC3)ccc1Cl [Example 334, methyl 2-chloro-5-(N-((1S,2R)-2-(2,3-dihydro-1H-inden-4-yl)-1-(5-thioxo-4,5-dihydro-1,3,4-oxadiazol-2-yl)propyl)sulfamoyl)benzoate] | 830 nM
Cc1ccc(F)c([C@@H](C)[C@@H](c2n[nH]c(=O)o2)N(C)S(=O)(=O)c2ccc(Cl)cc2C(N)=O)c1C [Example 337, 5-chloro-2-(N-((1S,2R)-2-(6-fluoro-2,3-dimethylphenyl)-1-(5-oxo-4,5-dihydro-1,3,4 oxadiazol-2-yl)propyl)-N-methylsulfamoyl)benzamide] | 80 nM

The remaining lines, values ahead:

IC50 | Compound
340 nM | COc1cc(Cl)ccc1S(=O)(=O)N[C@H](c1n[nH]c(=O)o1)[C@H](C)c1c(F)ccc(-c2ccc(Cl)nc2)c1C [Example 313, 4-chloro-N-((1S,2R)-2-(3-(6-chloropyridin-3-yl)-6-fluoro-2-methylphenyl)-1-(5-oxo-4,5-dihydro-1,3,4-oxadiazol-2-yl)propyl)-2-methoxybenzenesulfonamide]
260 nM | COc1ccc(-c2ccc(F)c([C@@H](C)[C@H](NS(=O)(=O)c3ccc(Cl)cc3OC)c3n[nH]c(=O)o3)c2C)cn1 [Example 314, 4-chloro-N-((1S,2R)-2-(6-fluoro-3-(6-methoxypyridin-3-yl)-2-methylphenyl)-1-(5-oxo-4,5-dihydro-1,3,4-oxadiazol-2-yl)propyl)-2-methoxybenzenesulfonamide]
280 nM | COc1cc(Cl)ccc1S(=O)(=O)N[C@H](c1n[nH]c(=O)o1)[C@H](C)c1c(F)ccc(-c2cn(C)nc2C)c1C [Example 317, 4-chloro-N-((1S,2R)-2-(3-(1,3-dimethyl-1H-pyrazol-4-yl)-6-fluoro-2-methylphenyl)-1-(5-oxo-4,5-dihydro-1,3,4-oxadiazol-2-yl)propyl)-2-methoxybenzenesulfonamide]
540 nM | COc1cc(Cl)ccc1S(=O)(=O)N[C@H](c1n[nH]c(=O)o1)[C@H](C)c1c(F)ccc(-c2cncnc2)c1C [Example 318, 4-chloro-N-((1S,2R)-2-(6-fluoro-2-methyl-3-(pyrimidin-5-yl)phenyl)-1-(5-oxo-4,5-dihydro-1,3,4-oxadiazol-2-yl)propyl)-2-methoxybenzenesulfonamide]
220 nM | Cc1ccc(F)c([C@@H](C)[C@H](NS(=O)(=O)c2ccc(Cl)c(-c3cnn(C)c3)c2)c2n[nH]c(=O)o2)c1C [Example 325, 4-chloro-N-((1S,2R)-2-(6-fluoro-2,3-dimethylphenyl)-1-(5-oxo-4,5-dihydro-1,3,4-oxadiazol-2-yl)propyl)-3-(1-methyl-1H-pyrazol-4-yl)benzenesulfonamide]
90 nM | Cc1ccc(F)c([C@@H](C)[C@H](NS(=O)(=O)c2cc(-c3nnco3)ccc2C(N)=O)c2n[nH]c(=O)o2)c1C [Example 331, 2-(N-((1S,2R)-2-(6-fluoro-2,3-dimethylphenyl)-1-(5-oxo-4,5-dihydro-1,3,4-oxadiazol-2-yl)propyl)sulfamoyl)-4-(1,3,4-oxadiazol-2-yl)benzamide]
130 nM | Cc1ccc(F)c([C@@H](C)[C@H](NS(=O)(=O)c2ccc(Br)cc2C(N)=O)c2n[nH]c(=S)o2)c1C [Example 332, 5-bromo-2-(N-((1S,2R)-2-(6-fluoro-2,3-dimethylphenyl)-1-(5-thioxo-4,5-dihydro-1,3,4-oxadiazol-2-yl)propyl)sulfamoyl)benzamide]
100 nM | Cc1ccc(F)c([C@@H](C)[C@H](NS(=O)(=O)c2ccc(Br)cc2OC(F)(F)F)c2n[nH]c(=O)o2)c1C [Example 338, 4-bromo-N-((1S,2R)-(6-fluoro-2,3-dimethylphenyl)-1-(5-oxo-4,5-dihydro-1,3,4-oxadiazol-2-yl)propyl)-2-(trifluoromethoxy)benzenesulfonamide]
510 nM | Cc1ccc(F)c([C@@H](C)[C@H](NS(=O)(=O)c2cc(F)c(Br)cc2F)c2n[nH]c(=O)o2)c1C [Example 339, 4-bromo-2,5-difluoro-N-((1S,2R)-(6-fluoro-2,3-dimethylphenyl)-1-(5-oxo-4,5-dihydro-1,3,4-oxadiazol-2-yl)propyl)benzenesulfonamide]
270 nM | Cc1ccc(F)c([C@@H](C)[C@H](NS(=O)(=O)c2ccc([N+](=O)[O-])cc2)c2n[nH]c(=O)o2)c1C [Example 340, N-((1S,2R)-(6-fluoro-2,3-dimethylphenyl)-1-(5-oxo-4,5-dihydro-1,3,4-oxadiazol-2-yl)propyl)-4-nitrobenzenesulfonamide]
410 nM | Cc1ccc(F)c([C@@H](C)[C@H](NS(=O)(=O)c2ccc(C#N)cc2)c2n[nH]c(=O)o2)c1C [Example 341, 4-cyano-N-((1S,2R)-(6-fluoro-2,3-dimethylphenyl)-1-(5-oxo-4,5-dihydro-1,3,4-oxadiazol-2-yl)propyl)benzenesulfonamide]
90 nM | COc1cc(C#N)ccc1S(=O)(=O)N[C@H](c1n[nH]c(=O)o1)[C@H](C)c1c(F)ccc(C)c1C [Example 342, 4-cyano-N-((1S,2R)-(6-fluoro-2,3-dimethylphenyl)-1-(5-oxo-4,5-dihydro-1,3,4-oxadiazol-2-yl)propyl)-2-methoxybenzenesulfonamide]
